The source of these data is patent EP3153515A1, “COMPOUNDS FOR INHIBITING HEPATITIS C VIRUS, PHARMACEUTICAL COMPOSITIONS AND USES THEREOF” (priority 2014, dated 2015).

The test system of one assay is HCV NS5A replicon GT-1a. Put plainly: HCV NS5A replicon anti-viral activity (EC50), dual-reporter Renilla luciferase, GT-1a. It is filed as cell-based. The following applies: Hepatitis C virus, GT1A, read-out: NS5A Inhibitory Activity (EC50 of GT-1a subtype inhibition). An excerpt: The autonomous replication level of HCV in liver cells in vitro is very low, and the only animal that can be infected by HCV is chimpanzee, therefore there is no appropriate animal model currently available for preclinical pharmacodynamic study. Some researchers have transplanted human liver tissue infected with HCV in vitro into immune deficient mice to establish an in vivo mice model, but these mice are hard to raise and the model is unstable and short of normal immunologic reaction. Moreover, the model has significant difference with the pathogenic process of hepatitis C, therefore, it has not been used for animal model to assess the action of anti-HCV medicine yet. The progress of the development of anti-viral drugs for the treatment of HCV infection had been very slow because the pathogenic mechanism and life cycle of HCV were unclear before 1999 due to the lack of cell culture system for effective multiplication of HCV. But researchers managed to achieve a breakthrough in 1999 after numerous attempts. An effective cell culture model-replicon system in which HCV is capable of autonomous replication in transfected human hepatic carcinoma cell line Huh-7 had been established in that year on the basis of subgenomic HCV RNA built with genetic engineering.
The above-mentioned cell culture model-replicon system which has been widely accepted in the industry is used in this invention for ex vivo experiments and subsequent assessment of drugs based on the experiment results.
The therapeutic effect of the compounds of this invention on HCV infection can be preliminarily assessed through the following preclinical in vitro inhibitory action test and can be further confirmed in clinical trials. Other methods used in the invention are also quite familiar to professionals in this field with ordinary technical knowledge. Method for testing the anti-viral activity(EC50) in HCV NS5A replicon system: • The viral replication level in infected cells was determined by testing Renilla luciferase with the newly established dual-reporter gene replicon system. There was a good linear relation between the expression level of the reporter gene and the HCV RNA replication level and viral protein expression level. The anti-viral activity was determined for 3 replicates in 3 replicate cells at five(5) 1:2 diluted concentration gradients, with 1 to 2 positive controls. The EC50 of the compounds was calculated in the end.
The compounds of the invention, or their stereoisomers, tautomers, esterified or amidated prodrugs, or pharmaceutically acceptable salts and mixtures have been subjected to test to determined their therapeutic effects in the treatment of HCV infection. […] Moreover, the results of 6a-6ep(Ia), 6fa-6gq(Ib) and reference compounds Ref-1(BMS-790052), Ref-2(GS5885), Ref-3 in HCV-NS5 inhibition test reveal that the cyclopentanyl/hexamethyleneamino radical containing linear polypeptide compounds 6a-6ep, 6fa-6gq and reference compounds Ref-1, Ref-2, Ref-3 have good HCV inhibitory results. […] The replicons GT-1a, GT-lb, GT-2a, GT-3a, GT-4a, GT-5a and GT-6a used for the test are routine replicons commercially available in this field. Table 1: HCV NS5A replicon inhibitory activity test results of compounds (6a-6gq) of the invention
For orientation: Replicon systems follow genome replication, usually without infectious particles.
Turning to `CC(C)[C@H](NC(=O)OC(C)(C)C)C(=O)N1C[C@H](OC(=O)N2Cc3cc4c(cc3C2)OCO4)C[C@H]1c1nc(-c2ccc(-c3ccc(-c4cnc([C@@H]5C[C@@H](OC(=O)N6Cc7cc8c(cc7C6)OCO8)CN5C(=O)[C@@H](NC(=O)OC(C)(C)C)C(C)C)[nH]4)cc3)cc2)c[nH]1` [6p], the EC50 – broadly, the concentration giving half of the maximal effect – is over 50 nM. In the case of `COC(=O)N[C@H](C(=O)N1CC2(CC2)C[C@H]1c1nc(-c2ccc3c(c2)C(F)(F)c2cc(-c4ccc5[nH]c([C@@H]6[C@H]7CC[C@H](C7)N6C(=O)[C@@H](NC(=O)OC)C(C)C)nc5c4)ccc2-3)c[nH]1)C(C)C` [Ref-2, GS5885, reference compound], the EC50 was in the range of 0.001 to 0.999 nM.

Staying with this assay, now noted: Hepatitis C virus, GT1A; GT-1a replicon; read-out: NS5A Inhibitory Activity (EC50 of GT-1a subtype inhibition).
In the case of `COC(=O)NC(C(=O)N1CC=C[C@H]1c1ncc(-c2ccc(-c3ccc(-c4cnc([C@@H]5CCCN5C(=O)[C@@H](NC(=O)OC)C(C)C)[nH]4)cc3)cc2)[nH]1)c1ccccc1` (stereo partly shown) [6bx], the EC50 was in the range of 0.001 to 0.999 nM. The same measure, in the same setting: for `COC(=O)NC(C(=O)N1CC=C[C@H]1c1nc(-c2ccc(-c3cc4sc(-c5c[nH]c([C@@H]6C=CCN6C(=O)C(NC(=O)OC)c6ccccc6)n5)cc4s3)cc2)c[nH]1)c1ccccc1` (stereo partly shown) [6cd] the value was over 50 nM; for `COC(=O)N[C@H](C(=O)N1CC=C[C@H]1c1ncc(-c2ccc(-c3ccc4[nH]c([C@@H]5CC6(CC6)CN5C(=O)[C@@H](NC(=O)OC)C(C)C)nc4c3)cc2)[nH]1)C(C)C` [6eb], 0.001 to 0.999 nM; for `COC(=O)N[C@H](C(=O)N1CCC[C@H]1c1ncc(-c2ccc(-c3ccc(-c4cnc([C@@H]5C=CCN5C(=O)[C@@H](NC(=O)N(C)C)C(C)C)[nH]4)cc3)cc2)[nH]1)C(C)C` [6ci], 0.001 to 0.999 nM. Still for that read-out and setting: for `COC(=O)N[C@H](C(=O)N1CCC[C@H]1c1nc2ccc(-c3csc4c(-c5ccc(-c6cnc([C@@H]7C=CCN7C(=O)[C@H](NC(=O)OC)c7ccccc7)[nH]6)c(F)c5)csc34)cc2[nH]1)C(C)C` [6fu] the value was 0.001 to 0.999 nM. Take `COC(=O)N[C@H](C(=O)N1CCC[C@H]1c1nc(-c2csc3c(-c4ccc(-c5cnc([C@@H]6C=CCN6C(=O)[C@H](NC(=O)OC)c6ccccc6)[nH]5)cc4)csc23)c[nH]1)C(C)C` [6fk]: the EC50 fell in the range of 0.001 to 0.999 nM. With `CC(C)[C@H](NC(=O)OC1CCCC1)C(=O)N1CC=C[C@H]1c1ncc(-c2ccc(-c3ccc(-c4c[nH]c([C@@H]5CCCN5C(=O)[C@@H](NC(=O)OC5CCCC5)C(C)C)n4)cc3)cc2)[nH]1` [6bg], the EC50 is over 50 nM.

In the case of `COC(=O)N[C@H](C(=O)N1CC=C[C@H]1c1nc2ccc(-c3cc4sc(-c5cnc([C@@H]6CCCN6C(=O)[C@@H](NC(=O)OC)C(C)C)[nH]5)cc4s3)cc2[nH]1)C(C)C` [6gh], the EC50 fell in the range of 0.001 to 0.999 nM. `COC(=O)N[C@H](C(=O)N1CN(C(=O)N2Cc3ccc4c(c3C2)OCO4)C[C@H]1c1ncc(-c2ccc(-c3cccc4c(-c5cnc([C@@H]6CCCN6C(=O)[C@@H](NC(=O)OC)C(C)C)[nH]5)cccc34)cc2)[nH]1)C(C)C` [6ee]: the EC50 lay in the range of 0.001 to 0.999 nM.

In the case of `COC(=O)NC(C(=O)N1CC=C[C@H]1c1ncc(-c2ccc(-c3ccc(-c4cnc([C@@H]5CCCN5C(=O)C(NC(=O)OC)c5ccccc5)[nH]4)cc3)cc2)[nH]1)c1ccccc1` (stereo partly shown) [6bz], the EC50 fell in the range of 0.001 to 0.999 nM.

As for `COC(=O)N[C@H](C(=O)N1CC=C[C@H]1c1ncc(-c2ccc(-c3ccc(-c4cnc([C@@H]5CN(C(=O)OC(C)(C)C)CN5C(=O)[C@@H](NC(=O)OC)C(C)C)[nH]4)cc3)cc2)[nH]1)C(C)C` [6cw], the EC50 was in the range of 0.001 to 0.999 nM. For the molecule `COC(=O)N[C@H](C(=O)N1CCC[C@H]1c1nc(-c2ccc(-c3ccc(-c4cnc([C@@H]5C=CCN5C(=O)[C@@H](NC(=O)OC(C)(C)C)C(C)C)[nH]4)cc3)cc2)c[nH]1)C(C)C` [6bc], the EC50 was in the range of 1 to 49.9 nM. Regarding `COC(=O)N[C@H](C(=O)N1CCCC[C@H]1c1nc(-c2ccc(-c3ccc(-c4c[nH]c([C@@H]5CCCN5C(=O)[C@@H](NC(=O)OC)C(C)C)n4)cc3)cc2)c[nH]1)C(C)C` [6ab], the concentration for a half-maximal effect (EC50) lay in the range of 0.001 to 0.999 nM. Still for that read-out and setting: with `COC(=O)N[C@H](C(=O)N1CC=C[C@H]1c1ncc(-c2ccc(-c3ccc(-c4cnc([C@@H]5CCCN5C(=O)[C@@H](NC(=O)N(C)C)C(C)C)[nH]4)cc3)cc2)[nH]1)C(C)C` [6df] the figure was 0.001 to 0.999 nM; with `COC(=O)N[C@H](C(=O)N1CCC[C@H]1c1ncc(-c2ccc(-c3cc4sc(-c5cnc([C@@H]6CN(C(=O)N7Cc8cc9c(cc8C7)OCO9)CN6C(=O)[C@@H](NC(=O)OC)C(C)C)[nH]5)cc4s3)cc2)[nH]1)C(C)C` [6bv], 0.001 to 0.999 nM. Same read-out and setting: for `CC(C)[C@H](NC(=O)OC(C)(C)C)C(=O)N1CC=C[C@H]1c1nc(-c2ccc(-c3ccc(-c4cnc([C@@H]5C=CCN5C(=O)[C@@H](NC(=O)OC(C)(C)C)C(C)C)[nH]4)cc3)cc2)c[nH]1` [6be] the value was 0.001 to 0.999 nM; for `COC(=O)N[C@H](C(=O)N1CC=C[C@H]1c1nc(-c2ccc(-c3ccc(-c4c[nH]c([C@@H]5CCCN5C(=O)C5(NC(=O)OC)CCCCC5)n4)cc3)cc2)c[nH]1)C(C)C` [6bj], 0.001 to 0.999 nM; for `COC(=O)N[C@H](C(=O)N1CC=C[C@H]1c1ncc(-c2ccc(-c3ccc(-c4cnc([C@@H]5CN(S(C)(=O)=O)CN5C(=O)[C@@H](NC(=O)OC)C(C)C)[nH]4)cc3)cc2)[nH]1)C(C)C` [6cz], 0.001 to 0.999 nM. On the same count and under the same terms, for `COC(=O)N[C@H](C(=O)N1CCC[C@H]1c1nc(-c2ccc(-c3ccc(-c4c[nH]c([C@@H]5C[C@@H](Oc6nc7ccccc7nc6-c6cccs6)CN5C(=O)[C@@H](NC(=O)OC)C(C)C)n4)cc3)cc2)c[nH]1)C(C)C` [6w] the value was over 50 nM; for `CC(C)(C)OC(=O)N[C@H](C(=O)N1CC=C[C@H]1c1ncc(-c2ccc(-c3ccc(-c4c[nH]c([C@@H]5CCCN5C(=O)[C@@H](NC(=O)OC(C)(C)C)C(C)(C)C)n4)cc3)cc2)[nH]1)C(C)(C)C` [6bb], over 50 nM; for `COC(=O)N[C@H](C(=O)N1CCC[C@H]1c1nc(-c2ccc(-c3ccc(-c4cnc([C@@H]5CC6(CN5C(=O)[C@@H](NC(=O)OC)C(C)C)OCCO6)[nH]4)cc3)cc2)c[nH]1)C(C)C` [6ds], 0.001 to 0.999 nM.

Turning to `COC(=O)NC(C(=O)N1CC=C[C@H]1c1nc(-c2ccc(-c3cc4sc(-c5c[nH]c([C@@H]6CCCN6C(=O)C(NC(=O)OC)c6ccccc6)n5)cc4s3)cc2)c[nH]1)c1ccccc1` (stereo partly shown) [6cc], the EC50 is over 50 nM. The same measure, in the same setting: with `CNC(=O)N[C@H](C(=O)N1CC=C[C@H]1c1ncc(-c2ccc(-c3ccc(-c4cnc([C@@H]5CCCN5C(=O)[C@@H](NC(=O)OC)C(C)C)[nH]4)cc3)cc2)[nH]1)C(C)C` [6cj] the figure was 0.001 to 0.999 nM. Still for that read-out and setting: with `COC(=O)N[C@@H](C(=O)N1CC=C[C@H]1c1ncc(-c2ccc(-c3cc4sc(-c5cnc([C@@H]6CCCN6C(=O)[C@H](NC(=O)OC)c6ccccc6)[nH]5)cc4o3)cc2)[nH]1)c1ccccc1` [6fr] the figure was 0.001 to 0.999 nM. The same measure, in the same setting: for `COC(=O)N[C@H](C(=O)N1CC=C[C@H]1c1nc(-c2csc3c(-c4ccc(-c5cnc([C@@H]6CCCN6C(=O)[C@H](NC(=O)OC)c6ccccc6)[nH]5)cc4)csc23)c[nH]1)C(C)C` [6ft] the value was 0.001 to 0.999 nM; for `COC(=O)NC(C(=O)N1CCC[C@H]1c1ncc(-c2cc3sc(-c4ccc(-c5cnc([C@@H]6CN(C(=O)N7Cc8cc9c(cc8C7)OCO9)CN6C(=O)[C@@H](NC(=O)OC)C(C)C)[nH]5)cc4)cc3s2)[nH]1)c1ccccc1` (stereo partly shown) [6bw], 0.001 to 0.999 nM; for `COC(=O)N[C@H](C(=O)N1CC=C[C@H]1c1nc(-c2ccc(-c3ccc(-c4c[nH]c([C@@H]5COCCN5C(=O)[C@@H](NC(=O)OC)C(C)C)n4)cc3)cc2)c[nH]1)C(C)C` [6bm], 0.001 to 0.999 nM. In the case of `COC(=O)N[C@H](C(=O)N1CCC[C@H]1c1nc2ccc(-c3csc4c(-c5ccc(-c6cnc([C@@H]7C=CCN7C(=O)[C@H](NC(=O)OC)c7ccc(C)cc7)[nH]6)cc5)csc34)cc2[nH]1)C(C)C` [6fw], the EC50 was in the range of 0.001 to 0.999 nM.

On to `COC(=O)N[C@H](C(=O)N1CC=C[C@H]1c1nc(-c2ccc(-c3ccc(-c4cnc([C@@H]5C=CCN5C(=O)[C@@H](NC(=O)OC)C(C)C)[nH]4)cc3)cc2)c[nH]1)C(C)C` [6bd], for which the EC50 was in the range of 0.001 to 0.999 nM.

Staying with this assay, now noted: Hepatitis C virus, genotype 1a / genotype 6a, read-out: Inhibitory activity against various HCV-NS5A subtypes(EC50, GT-1a to GT-6a) GT-1a.
On to `COC(=O)N[C@H](C(=O)N1CC=C[C@H]1c1ncc(-c2ccc(-c3csc4c(-c5ccc6nc([C@@H]7CCCN7C(=O)[C@@H](NC(=O)OC)C(C)C)[nH]c6c5)csc34)cc2)[nH]1)C(C)C` [6gd], for which the EC50 stood at 0.004 nM. As to `COC(=O)N[C@H](C(=O)N1CC2(CC2)C[C@H]1c1nc(-c2ccc3c(c2)C(F)(F)c2cc(-c4ccc5[nH]c([C@@H]6[C@H]7CC[C@H](C7)N6C(=O)[C@@H](NC(=O)OC)C(C)C)nc5c4)ccc2-3)c[nH]1)C(C)C` [Ref-2, GS5885, reference compound], the EC50 is 0.088 nM.

Still in this assay, the particulars now being: comparison drawn from Table 2.
On to `COC(=O)N[C@H](C(=O)N1CC=C[C@H]1c1ncc(-c2ccc(-c3csc4c(-c5ccc6nc([C@@H]7CCCN7C(=O)[C@@H](NC(=O)OC)C(C)C)[nH]c6c5)csc34)cc2)[nH]1)C(C)C` [6gd], for which the “inhibitory activity compared with Ref-1(BMS-790052), Ref-2(GS5885), Ref-3 and Ref-4 (in words)” value is given as “significantly superior”.
